Our source for the IC50 values is patent US9296748B2, “Pyridinones” (Boehringer Ingelheim International GmbH, priority 2013, dated 2016).

Usually IC50 stands for the concentration needed to halve the response being measured. A high value points to lower potency.

The target of this experiment is BRD4-BD1 (Homo sapiens (Human), UniProt O60885). Briefly: BRD4-H4 Tetraacetylated Peptide Inhibition AlphaScreen. Format: binding. The settings on record: GST-BRD4-BD1 (aa 44-168), biotinylated Acetyl-Histone H4 peptide. The procedure:
Compounds are diluted in serial dilution 1:5 in assay buffer from 10 mM stock in DMSO (100 μM start concentration) in white OptiPlate-384 (PerkinElmer). […] Subsequently, 6 μl of premixed AlphaLISA Glutathione Acceptor Beads and AlphaScreen Streptavidin Donor Beads from PerkinElmer (in assay buffer at a concentration of 10 μg/ml each) are added and the samples are incubated for 30 min at RT in the dark (shaking 300 rpm). Afterwards, the signal is measured in a PerkinElmer Envision HTS Multilabel Reader using the AlphaScreen protocol from PerkinElmer. […] Negative control values are entered as low basis value when using the software GraphPad Prism for calculations. Furthermore, a positive control (probe molecule JQ1+ with protein/peptide mix) is pipetted. Determination of IC50 values are carried out using GraphPad Prism 3.03 software (or updates thereof).
(Alpha assays give light when donor and acceptor beads are brought close together.)
The compound `Cc1cc(-c2nc3ncccc3n2Cc2ccccc2)cn(C)c1=O` [IV-1] registered an IC50 of 313 nM.

The compound `CCn1cc(-c2nc3ccc(N4CCN(C)CC4)cc3n2Cc2ccccc2)cc(C)c1=O` [Example I-10] came in with a 50% inhibitory concentration (IC50) of 49 nM. This IC50 is about 6.4-fold lower than that of the compound before.

For the compound `Cc1cc(-c2nc3cnc(N(C)C)cc3n2Cc2ccccc2)cn(C)c1=O` [II-9], it took 30 nM to reach half-maximal inhibition (IC50).

Consider `COC[C@H](C)n1c(-c2cc(C)c(=O)n(C)c2)nc2ccc(C(C)C)cc21` [Example I-28], for which the IC50 amounted to 174 nM. This IC50 is about 5.8-fold higher than that of the compound before.

As for `Cc1cc(-c2nc3cnc(C(C)C)cc3n2[C@@H](C)c2ccccn2)cn(C)c1=O` [II-33], the IC50 came to 169 nM.

The compound `CCCOc1ccc2nc(-c3cc(C)c(=O)n(C)c3)n([C@@H](C)c3ccccc3)c2n1` [III-6] had an IC50 of 108 nM. This IC50 is about 1.6-fold lower than that of the compound before.

In the case of `Cc1cc(-c2nc3cnccc3n2Cc2ccccc2)cn(C)c1=O` [II-8], the IC50 worked out at 148 nM.

In the case of `Cc1cc(-c2nc3cnc(OC(C)C)cc3n2[C@@H](C)c2ccccn2)cn(C)c1=O` [II-38], the concentration for half-maximal inhibition (IC50) came out at 205 nM.

`Cc1nc(-c2nc3cnc(N4CCN(C)CC4)cc3n2Cc2ccccc2)cn(C)c1=O` [II-10] had an IC50 of 45 nM.

`Cc1cc(-c2nc3cnccc3n2Cc2ccc(Cl)cc2)cn(C)c1=O` [II-23] showed an IC50 of 33 nM.

In turn, `COC[C@H](C)n1c(-c2cc(C)c(=O)n(C)c2)nc2ccc(C3CCOCC3)cc21` [Example I-26] came in with an IC50 of 96 nM.

On to `Cc1cc(-c2nc3cnc(C4CCOCC4)cc3n2[C@@H](C)c2ccccn2)cn(C)c1=O` [II-34], for which the IC50 worked out at 120 nM.

In the case of `Cc1cc(-c2nc3cnc(N4CCOCC4)cc3n2[C@@H](C)c2ccccc2)cn(C)c1=O` [II-19], the IC50 was found to be 27 nM.

Consider `Cc1cc(-c2nc3cnc(OC4CCOC4)cc3n2[C@@H](C)c2ccccn2)cn(C)c1=O` (some centres unmarked) [II-39], for which the IC50 is 211 nM.

Compound `Cc1nc(-c2nc3ccc(N4CCN(C)CC4)cc3n2Cc2ccccc2)cn(C)c1=O` [Example I-14] returned an IC50 of 36 nM.

Regarding `CCn1cc(-c2nc3cnc(N4CCN(C)CC4)cc3n2Cc2ccccc2)cc(C)c1=O` [II-4], the half-maximal inhibitory concentration (IC50) is 55 nM.

`Cc1cc(-c2nc3ccc(C4CCN(C)C(=O)C4)cc3n2[C@@H](C)c2ccccc2)nn(C)c1=O` (some centres unmarked) [Example I-38] returned an IC50 of 32 nM. This IC50 is about 1.7-fold lower than that of the compound before.

For the compound `Cc1cc(-c2nc3ccc(C4CN(C)CCO4)cc3n2[C@@H](C)c2ccccc2)cn(C)c1=O` (some centres unmarked) [Example I-34], the IC50 was 49 nM.

Turning to `Cn1cc(-c2nc3ccccc3n2Cc2ccccc2)ncc1=O` [Example I-18], the IC50 stood at 1110 nM.

`Cn1cc(-c2nc3cnc(N4CCOCC4)cc3n2Cc2ccccc2)cc(Cl)c1=O` [II-32] registered an IC50 of 105 nM.

`CN1CCN(c2ccc3nc(-c4cc(N)c(=O)n(C)c4)n(Cc4ccccc4)c3c2)CC1` [Example V-3] had an IC50 of 73 nM.

For `Cc1cc(-c2nc3cc(N)cnc3n2Cc2ccccc2)cn(C)c1=O` [IV-12], inhibition was half-maximal at 38 nM (IC50). Compared with the last compound, the IC50 is about 1.9-fold lower.

Compound `Cc1cc(-c2nc3cnc(N4CCOC[C@@H]4C)cc3n2Cc2ccccn2)cn(C)c1=O` [II-17] yielded an IC50 of 160 nM.

Compound `Cc1cc(-c2nc3cnc(N4CCOCC4)nc3n2[C@@H](C)c2ccccc2)cn(C)c1=O` [IV-15] came in with an IC50 of 17 nM.

With `Cc1cc(-c2nc3ccc(C4CCN(C)C(=O)C4)cc3n2[C@@H](C)c2ccccc2)cn(C)c1=O` (some centres unmarked) [Example I-35], the IC50 was 23 nM.

`COc1ccc2nc(-c3cc(C)c(=O)n(C)c3)n(Cc3ccccc3)c2c1` [Example I-22] displayed an IC50 of 44 nM.

The compound `Cc1cc(-c2nc3cnc(C4CCOCC4)cc3n2[C@H](C)c2ccccc2)cn(C)c1=O` [II-45] came in with an IC50 of 95 nM.

For the compound `Cc1cc(-c2nc3cnc(N4CCOCC4)cc3n2C(C)c2ccccn2)cn(C)c1=O` (centres unmarked) [II-37], the half-maximal inhibitory concentration (IC50) was found to be 172 nM.

For `Cc1cc(-c2nc3ccc(N4CCOCC4)cc3n2Cc2ccccc2)cn(C)c1=O` [Example I-6], the IC50 came to 19 nM.

`CC1CC(=O)NN=C1c1ccc2c(c1)nc(-c1cc(N)c(=O)n(C)c1)n2Cc1ccccc1` (centres unmarked) [Example V-1, 6-[2-(5-Amino-1-methyl-6-oxo-1,6-dihydro-pyridin-3-yl)-1-benzyl-1H-benzoimidazol-5-yl]-5-methyl-4,5-dihydro-2H-pyridazin-3-one] gave an IC50 of 145 nM. This IC50 lies about 7.6-fold higher than the previous one.

Take `Cc1cc(-c2nc3cnc(OCC4CC4)cc3n2C(C)c2ccccn2)cn(C)c1=O` (racemic) [II-21, 5-[6-Cyclopropylmethoxy-1-(1-pyridin-2-yl-ethyl)-1H-imidazo[4,5-c]pyridin-2-yl]-1,3-dimethyl-1H-pyridin-2-one]: the 50% inhibitory concentration (IC50) is 42 nM. Compared with the last compound, the IC50 is about 3.5-fold lower.

Compound `Cn1cc(-c2nc3ccc(N4CCOCC4)cc3n2Cc2ccccc2)ncc1=O` [Example I-19] showed an IC50 of 298 nM.

Turning to `Cc1cc(-c2nc3cnc(N4CCOCC4)cc3n2Cc2cccnc2)cn(C)c1=O` [II-20], the midpoint of inhibition, the IC50, lay at 33 nM.

As to `CN1CCN(c2ccc3nc(-c4ccc(=O)n(C)c4)n(Cc4ccccc4)c3c2)CC1` [Example I-5], inhibition was half-maximal at 547 nM (IC50). Compared with the last compound, the IC50 is about 17-fold higher.

For the compound `CN1CCN(c2ccc3nc(-c4ccc(=O)n(C)c4)n(Cc4ccccc4)c3n2)CC1` [III-1, 5-[3-Benzyl-5-(4-methyl-piperazin-1-yl)-3H-imidazo[4,5-b]pyridin-2-yl]-1-methyl-1H-pyridin-2-one], inhibition was half-maximal at 697 nM (IC50).

`Cc1cc(-c2nc3cnc(N4CCN(C)CC4)cc3n2C(C)c2ccccn2)cn(C)c1=O` (centres unmarked) [II-22]: the IC50 is 34 nM. Against the preceding compound, the IC50 is about 20-fold lower.

With `Cc1cc(-c2nc3cnc(-n4ccnc4)cc3n2Cc2ccccc2)cn(C)c1=O` [II-13, 5-(1-Benzyl-6-imidazol-1-yl-1H-imidazo[4,5-c]pyridin-2-yl)-1,3-dimethyl-1H-pyridin-2-one], the IC50 was 102 nM.

The compound `Cc1cc(-c2nc3cnc(N4CCOCC4)cc3n2Cc2ccccn2)cn(C)c1=O` [II-2] gave an IC50 of 54 nM.

`Cc1cc(-c2nc3cnc(N4CCOC[C@@H]4C)cc3n2[C@@H](C)c2ccccn2)cn(C)c1=O` [II-29]: the IC50 was 130 nM.

Regarding `Cc1cc(-c2nc3cnccc3n2Cc2ccccc2F)cn(C)c1=O` [II-28], 128 nM corresponded to half-maximal inhibition (IC50).

`Cc1cc(-c2nc3cnc(N4CCOCC4)cc3n2Cc2ccccc2)cn(C)c1=O` [II-3, 5-(1-Benzyl-6-morpholin-4-yl-1H-imidazo[4,5-c]pyridin-2-yl)-1,3-dimethyl-1H-pyridin-2-one] returned an IC50 of 18 nM.

As for `Cc1cc(-c2nc3cc(C4CCOCC4)cnc3n2Cc2ccccc2)cn(C)c1=O` [IV-7], the IC50 is 16 nM.

In turn, `COC[C@H](C)n1c(-c2cc(C)c(=O)n(C)n2)nc2cnc(N3CCOC[C@@H]3C)cc21` [II-30] yielded an IC50 of 62 nM.

Compound `Cc1cc(-c2nc3cnc(C4=CCCCO4)cc3n2C(C)c2ccccn2)cn(C)c1=O` (centres unmarked) [II-40] yielded an IC50 of 295 nM.

On to `Cn1cc(-c2nc3ccc(N4CCOCC4)cc3n2Cc2ccccc2)ccc1=O` [Example I-4], for which the IC50 was found to be 515 nM.

For `Cc1cc(-c2nc3ccc(N4CCN(C)CC4)cc3n2Cc2ccccc2)c[nH]c1=O` [Example I-7], it took 95 nM to reach half-maximal inhibition (IC50).

In the case of `Cc1cc(-c2nc3cnc(C4=CCOCC4)cc3n2C(C)c2ccccn2)cn(C)c1=O` (centres unmarked) [II-35], the IC50 was determined as 211 nM.

Regarding `Cc1cc(-c2nc3cc(Cl)c(Cl)cc3n2Cc2ccc(Cl)c(Cl)c2)cn(C)c1=O` [IV-13], half-maximal inhibition (IC50) was put at 4810 nM. Compared with the last compound, the IC50 is about 23-fold higher.

`Cc1cc(-c2nc3cnc(N4CCOC[C@@H]4C)cc3n2Cc2ccccc2)cn(C)c1=O` [II-15] came in with an IC50 of 42 nM. This IC50 lies about 110-fold lower than the previous one.

As to `COC[C@H](C)n1c(-c2cc(C)c(=O)n(C)c2)nc2ccc(N3CCOC[C@@H]3C)cc21` [Example I-31], the IC50 worked out at 75 nM.

In turn, `Cc1cc(-c2nc3ccccc3n2Cc2ccccc2)cn(C)c1=O` [Example I-13] registered an IC50 of 68 nM.

For the compound `Cc1cc(-c2nc3cnc(N4CCOCC4)cc3n2[C@H](C)c2ccccc2)cn(C)c1=O` [II-18], the IC50 came out at 233 nM.

On to `Cc1cc(-c2nc3ccccc3n2Cc2ccccc2)c[nH]c1=O` [Example I-8], for which the IC50 was determined as 609 nM. This IC50 lies about 2.6-fold higher than the previous one.

`Cc1cc(-c2nc3cnc(Cl)cc3n2C(C)c2ccccn2)cn(C)c1=O` (centres unmarked) [II-36] showed an IC50 of 650 nM.

In turn, `Cc1cc(-c2nc3ccc(N4CCN(C)CC4)cc3n2Cc2ccccc2)nn(C)c1=O` [Example I-11] had an IC50 of 12 nM.

In turn, `Cc1cc(-c2nc3cnc(C(C)C)cc3n2[C@@H](C)c2ccccc2)cn(C)c1=O` [II-24] displayed an IC50 of 38 nM.

With `Cc1cc(-c2nc3ccc(OC4CCN(C)CC4)nc3n2C(C)c2ccccn2)cn(C)c1=O` (centres unmarked) [III-9], 217 nM corresponded to half-maximal inhibition (IC50).

As to `Cc1nc(-c2nc3ccccc3n2Cc2ccccc2)cn(C)c1=O` [Example I-21], the midpoint of inhibition, the IC50, lay at 201 nM.

In turn, `Cc1cc(-c2nc3cc(Cl)cnc3n2Cc2ccccc2)cn(C)c1=O` [IV-3] came in with an IC50 of 188 nM.

In the case of `COC[C@H](C)n1c(-c2cc(C)c(=O)n(C)n2)nc2ccc(N3CCOC[C@@H]3C)cc21` [Example I-36], the IC50 was 65 nM.

Consider `Cc1cc(-c2nc3cc(N4CCN(C)CC4)cnc3n2Cc2ccccc2)cn(C)c1=O` [IV-6], for which the IC50 stood at 23 nM.

Turning to `Cc1cc(-c2nc3cnc(N)cc3n2[C@@H](C)c2ccccc2)cn(C)c1=O` [II-42], the IC50 is 35 nM.

With `Cc1cc(-c2nc3cnc(N4CCN(C)CC4)cc3n2Cc2ccccc2)nn(C)c1=O` [II-5], half-maximal inhibition (IC50) required 12 nM. This IC50 is about 2.9-fold lower than that of the compound before.

`Cc1cc(-c2nc3cnc(N4CCOCC4)nc3n2Cc2ccccc2)cn(C)c1=O` [IV-14] yielded an IC50 of 50 nM.

On to `Cc1cc(-c2nc3cc(S(=O)(=O)N(C)C)cnc3n2Cc2ccccc2)cn(C)c1=O` [IV-9], for which the IC50 stood at 119 nM.

For `Cc1cc(-c2nc3ccc(OC(C)C)nc3n2[C@@H](C)c2ccccc2)nn(C)c1=O` [III-5], the IC50 was 117 nM.

`Cc1cc(-c2nc3cnc(N4CCN(C)CC4)cc3n2Cc2ccccc2)cn(C)c1=O` [II-1] came in with an IC50 of 19 nM.

In turn, `CCOc1cc(=O)n(C)cc1-c1nc2cnc(C3CCOCC3)cc2n1[C@@H](C)c1ccccc1` [II-44] showed an IC50 of 188 nM.
